Measured values as given in paper PMC9961652 (International Journal of Molecular Sciences, 2023).

Columns and labels:
[1] = tested on: washed human platelets; assay: Lactate dehydrogenase (LDH) leakage cytotoxicity assay; type: cell-based; settings: 50 µM; compared with positive control Triton X-100
Procedure: The cytotoxicity of the active analogs was determined with the lactate dehydrogenase (LDH) leakage assay to ensure that platelet inhibition was a consequence of pharmacologic inhibition and not cytotoxicity. LDH is a stable cytosolic marker for membrane perturbation and is present in many cell types, including platelets.
Compound cytotoxicity was assessed using LDH Cytotoxicity Assay Kit (No. 601170; Cayman Chemical, MI) as previously described. Washed human platelets (2.5 × 10^8/mL) were incubated at 37 °C for 10 min with the highest concentration of compounds (50 µM for R-G04 and S-G04, and 20 µM for Rhosin analogs) or the vehicle, dimethyl sulfoxide (DMSO) 0.1% or 10% Triton X-100, which served as the positive control. The platelets were centrifuged at 800× g for 8 min at 4 °C, and 100 µL of the supernatant was mixed with 100 µL of LDH reaction solution in a 96-well plate. The plate was incubated at 37 °C for 10 min under constant orbital shaking before measurement of the absorbance at 490 nm in a plate reader (BioTek Synergy LX multimode reader; Santa Clara, CA, USA).

[2] = target: T1, RhoA-LARG interaction (Homo sapiens, UniProt P61586); assay: In vitro complex-formation assay of RhoA with LARG DH-PH domain; type: binding; settings: R-G04 25 µM or 50 µM, S-G04 5 µM or 10 µM; 4 °C, 1 h
T1 construct: 100 ng of purified full-length RhoA
Procedure: (A) A complex-formation assay tested the inhibitory effects of 20 µM UC-177618 and UC-177619 on RhoA interaction with the LARG DH-PH domain. […] After incubating the compound-RhoA-LARG mixture at 4 °C for 1 h, the beads associated with RhoA were detected with anti-RhoA Western blotting. (B,C) Top view of the predicted structural contacts of UC-177618 and UC-177619 in the binding pocket around the Trp58 residue of RhoA.
(A) A complex-formation assay tested the inhibitory effects of R-G04 and S-G04 on RhoA interaction with the LARG DH-PH domain. MBP-(His)6-tagged LARG (100 ng) was immobilized on Amylose beads. Binding buffer containing full-length RhoA (100 ng) was pre-incubated with different concentrations of R-G04 (25 µM or 50 µM), and S-G04 (5 µM or 10 µM) was added to the beads. After incubating the compound-RhoA-LARG mixture at 4 °C for 1 h, the beads associated with RhoA were detected with anti-RhoA Western blotting. (B) Top view of the predicted structural contacts of R-G04 and S-G04 in the binding pocket around the Trp58 residue of RhoA.
In total, 100 ng of purified MBP (Maltose-binding protein)-(His)6-tagged LARG DH-PH was immobilized on 20 µL of suspended amylose beads (No. E8021S; New England Biolabs Inc., Ipswich, MA, USA) by incubating them in an orbital shaker at 4 °C for 30 min in binding buffer (20 mM Tris·HCl (pH 7.6), 100 mM NaCl, 0.01% Triton X-100, 5mM EDTA, and 5 mM MgCl2). The compounds were added to the binding buffer containing 100 ng of purified full-length RhoA and pre-incubated at 4 °C for 30 min under constant agitation. The Amylose beads bound to LARG were washed thrice with binding buffer to get rid of unbound LARG, and the pre-incubated compound-RhoA mixture was added to the beads. This LARG-compound-RhoA mixture was incubated in the orbital shaker at 4 °C for 1 h. The beads were washed three times, and the amount of RhoA protein co-precipitated with the MBP-fusion-bound beads was detected with anti-RhoA Western blotting.

[3] = tested on: washed human platelets; assay: ATP secretion (Chrono-lume) after thrombin stimulation; type: cell-based; settings: 10 µM S-G04 or 20 µM R-G04; thrombin 0.1 U/mL
Procedure: (A–D) Washed human platelets were pre-incubated with 10 µM S-G04 or 20 µM R-G04 for 2 min before being stimulated with Arachidonic Acid (AA), U46619, ADP, or Thrombin. The % platelet aggregation was measured 5 min after agonist stimulation. (E) Washed human platelets were pre-incubated with 10 µM S-G04 or 20 µM R-G04 for 2 min and with Chrono-lume® for 30 s at 37 °C before being stimulated with 0.1 U/mL Thrombin. […] TxB2 formation was determined using a TxB2 ELISA kit. The differences among DMSO, R-G04, and S-G04 were analyzed using t-test, and the results are shown as means ± SDs of three independent experiments. (* p < 0.05, ** p < 0.01, *** p < 0.001, and **** p < 0.0001).
The in vitro antiplatelet activity of the compounds was assayed on washed human platelets using light transmission aggregometry. Platelet aggregation was performed using a 4-channel Lumi-aggregometer (Chronolog, PA, USA) at 37 °C and stirring speed of 900 rpm. […] The reactions were allowed to proceed for at least 4 min, and the results of platelet aggregation and ATP secretion were determined using Aggrolink software. Platelet aggregation was expressed as the maximum change in the light transmission, where the 100% value corresponded to treatment with the agonist alone. Compounds were evaluated in triplicate at nine compound concentrations ranging from 50 µM to 1 µM. […]

T1 sequence (P61586 whole entry, the tested form may be a part): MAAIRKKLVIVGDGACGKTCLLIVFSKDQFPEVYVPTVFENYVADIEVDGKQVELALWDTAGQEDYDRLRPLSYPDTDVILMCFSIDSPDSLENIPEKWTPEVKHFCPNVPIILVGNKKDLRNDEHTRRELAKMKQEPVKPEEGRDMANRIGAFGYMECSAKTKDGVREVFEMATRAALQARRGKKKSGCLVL

| SMILES | cytotoxicity, LDH assay [1] | LARG binding to RhoA [2] | ATP secretion [3] |
| --- | --- | --- | --- |
| N[C@H](Cc1c[nH]c2ccccc12)C(=O)N/N=C/c1ccc2nccnc2c1 [R-G04] | neither R-G04 nor S-G04 induced significant human platelet cytolysis | dose-dependently suppressing LARG binding to RhoA | failed to have the same inhibitory effect |
| N[C@@H](Cc1c[nH]c2ccccc12)C(=O)N/N=C/c1ccc2nccnc2c1 [S-G04] | neither R-G04 nor S-G04 induced significant human platelet cytolysis | dose-dependently suppressing LARG binding to RhoA | inhibited ATP secretion |
